# Experimental data published in ChEMBL document CHEMBL1201862, “PubChem BioAssay data set” (2004).
# Calls of active or inactive are those of the source. For most assays here, no stated cut-off is given here; in the data, actives have a measured EC50 and inactives only a lower limit.
# How the values were obtained:
# [1] = target: T1, Corticotropin-releasing factor receptor 2/Corticotropin-releasing factor-binding protein (Homo sapiens, UniProt P24387+Q13324); assay: Dose Response confirmation of uHTS hits for small molecule antagonists of the CRF-binding protein and CRF-R2 receptor complex.; format: functional; settings: read-out: IC50_Mean
# T1 sequence (Q13324 whole entry): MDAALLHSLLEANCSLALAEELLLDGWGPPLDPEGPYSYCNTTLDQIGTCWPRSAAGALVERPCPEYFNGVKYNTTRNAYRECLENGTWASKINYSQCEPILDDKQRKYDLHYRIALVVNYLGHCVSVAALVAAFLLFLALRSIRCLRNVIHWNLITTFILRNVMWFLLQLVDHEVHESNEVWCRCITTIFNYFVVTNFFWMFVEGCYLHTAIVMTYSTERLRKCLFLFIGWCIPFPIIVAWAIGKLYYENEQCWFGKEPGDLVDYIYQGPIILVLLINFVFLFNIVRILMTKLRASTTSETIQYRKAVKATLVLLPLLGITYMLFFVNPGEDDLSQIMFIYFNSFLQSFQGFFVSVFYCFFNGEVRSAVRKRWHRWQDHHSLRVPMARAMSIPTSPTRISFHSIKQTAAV
# T1 sequence (P24387 whole entry): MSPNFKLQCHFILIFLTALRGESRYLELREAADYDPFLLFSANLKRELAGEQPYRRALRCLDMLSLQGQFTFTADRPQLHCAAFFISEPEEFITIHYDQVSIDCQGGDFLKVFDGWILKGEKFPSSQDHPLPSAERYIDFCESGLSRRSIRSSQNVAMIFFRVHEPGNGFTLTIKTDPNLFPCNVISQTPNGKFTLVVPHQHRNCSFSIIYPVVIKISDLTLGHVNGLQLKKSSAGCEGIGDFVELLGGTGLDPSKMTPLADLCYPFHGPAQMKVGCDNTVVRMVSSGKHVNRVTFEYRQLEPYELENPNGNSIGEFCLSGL
# [2] = target: T1, Corticotropin-releasing factor receptor 2/Corticotropin-releasing factor-binding protein; assay: activators of CRF receptor 2 with binding protein – uHTS hits, confirmation (AID 602473); format: functional; settings: read-out: EC50_Mean
# [3] = target: T2, Replicative DNA helicase DnaB (Mycobacterium tuberculosis, UniProt P9WMR3); assay: DnaB intein splicing inhibitors, dose response, biochemical, cell-free fluorescence (AID 449749); format: functional
# T2 sequence (P9WMR3 whole entry): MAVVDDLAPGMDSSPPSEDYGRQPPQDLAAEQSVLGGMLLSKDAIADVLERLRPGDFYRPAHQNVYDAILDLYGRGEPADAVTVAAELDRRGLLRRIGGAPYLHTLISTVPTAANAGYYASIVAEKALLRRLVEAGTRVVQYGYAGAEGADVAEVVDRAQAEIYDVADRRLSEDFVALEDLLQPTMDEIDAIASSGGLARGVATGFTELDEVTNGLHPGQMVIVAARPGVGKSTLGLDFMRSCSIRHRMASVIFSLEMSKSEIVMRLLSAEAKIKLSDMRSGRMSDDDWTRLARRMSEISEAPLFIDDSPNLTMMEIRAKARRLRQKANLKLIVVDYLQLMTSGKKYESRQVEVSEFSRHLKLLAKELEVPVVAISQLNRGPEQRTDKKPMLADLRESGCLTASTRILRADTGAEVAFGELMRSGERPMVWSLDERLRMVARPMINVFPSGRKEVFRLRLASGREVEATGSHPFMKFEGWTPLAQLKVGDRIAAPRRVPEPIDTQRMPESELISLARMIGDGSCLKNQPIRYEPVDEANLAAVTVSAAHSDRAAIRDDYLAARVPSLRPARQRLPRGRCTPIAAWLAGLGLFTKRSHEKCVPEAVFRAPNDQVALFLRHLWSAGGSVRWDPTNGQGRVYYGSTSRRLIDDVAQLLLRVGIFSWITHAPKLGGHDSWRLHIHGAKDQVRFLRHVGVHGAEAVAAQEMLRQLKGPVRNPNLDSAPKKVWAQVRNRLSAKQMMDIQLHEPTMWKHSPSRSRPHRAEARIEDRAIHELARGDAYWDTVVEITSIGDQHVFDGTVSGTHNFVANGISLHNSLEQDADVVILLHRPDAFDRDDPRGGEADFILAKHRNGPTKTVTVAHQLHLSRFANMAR
# Protein RecA = target: T3, Protein RecA (Mycobacterium tuberculosis, UniProt P9WHJ3); assay: Fluorescence Cell-Free Homogeneous Dose Retest to Identify Inhibitors of RecA-Intein Splicing Activity. [Related pubchem assays (depositor defined):AID2097, AID2223, AID489010, AID492950]; format: functional
# T3 sequence (P9WHJ3 whole entry): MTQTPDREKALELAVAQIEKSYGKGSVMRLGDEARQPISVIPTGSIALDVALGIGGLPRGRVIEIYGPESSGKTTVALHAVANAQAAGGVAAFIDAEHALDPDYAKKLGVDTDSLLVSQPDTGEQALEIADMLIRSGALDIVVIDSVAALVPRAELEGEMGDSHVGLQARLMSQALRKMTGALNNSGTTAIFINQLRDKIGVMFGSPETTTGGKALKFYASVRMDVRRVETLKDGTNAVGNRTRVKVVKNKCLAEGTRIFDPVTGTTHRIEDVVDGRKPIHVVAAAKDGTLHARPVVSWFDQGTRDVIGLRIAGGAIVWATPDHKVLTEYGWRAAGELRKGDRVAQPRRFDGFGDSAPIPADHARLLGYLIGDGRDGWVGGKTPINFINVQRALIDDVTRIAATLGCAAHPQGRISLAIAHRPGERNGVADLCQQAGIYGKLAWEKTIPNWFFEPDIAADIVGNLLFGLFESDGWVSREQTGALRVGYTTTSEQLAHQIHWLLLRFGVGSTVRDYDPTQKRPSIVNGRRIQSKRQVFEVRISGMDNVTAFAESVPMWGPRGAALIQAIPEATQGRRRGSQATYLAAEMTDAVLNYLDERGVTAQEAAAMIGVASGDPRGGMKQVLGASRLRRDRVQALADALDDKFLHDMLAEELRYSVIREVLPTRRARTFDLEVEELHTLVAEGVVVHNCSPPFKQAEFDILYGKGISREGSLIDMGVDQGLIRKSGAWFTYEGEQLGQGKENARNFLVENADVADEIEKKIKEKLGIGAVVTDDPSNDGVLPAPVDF
# [4] = target: T4, Rac GTPase-activating protein 1 (Homo sapiens, UniProt Q9H0H5); assay: blockers of MgcRacGAP-driven Rac1 GTP hydrolysis – biochemical, ADP Hunter fluorescence, primary and confirmatory, confirmation (AID 624330); format: functional
# T4 sequence (Q9H0H5 whole entry): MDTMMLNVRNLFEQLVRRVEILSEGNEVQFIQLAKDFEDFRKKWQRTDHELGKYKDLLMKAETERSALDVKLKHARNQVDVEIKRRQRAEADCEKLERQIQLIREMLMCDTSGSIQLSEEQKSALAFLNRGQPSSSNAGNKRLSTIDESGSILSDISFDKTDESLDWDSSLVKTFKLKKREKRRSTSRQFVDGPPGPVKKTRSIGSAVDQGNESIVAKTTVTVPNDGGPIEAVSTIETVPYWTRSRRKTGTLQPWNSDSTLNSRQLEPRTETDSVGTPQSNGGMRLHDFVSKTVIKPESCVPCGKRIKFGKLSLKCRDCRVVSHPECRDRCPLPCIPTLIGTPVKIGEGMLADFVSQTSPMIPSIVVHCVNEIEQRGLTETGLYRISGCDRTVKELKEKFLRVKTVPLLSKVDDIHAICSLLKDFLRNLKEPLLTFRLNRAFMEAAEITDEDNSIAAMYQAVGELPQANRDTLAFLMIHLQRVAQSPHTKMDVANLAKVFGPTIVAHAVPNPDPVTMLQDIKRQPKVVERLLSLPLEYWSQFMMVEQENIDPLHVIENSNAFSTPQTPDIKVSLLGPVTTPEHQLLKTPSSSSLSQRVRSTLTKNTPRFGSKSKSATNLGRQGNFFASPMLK
# [5] = luciferase reporter signal suppression in cells – H4 neuroglioma cells, luminescence, dose response (AID 1990); format: functional, cell-based
# [6] = Luminescence Cell-Based Dose Response HTS to Identify Inhibitors of 5'UTR Stem-Loop Driven Prion Protein mRNA Translation in H4 Neuroglioblastoma Cells. [Related pubchem assays: 1827 (Project Summary), 1813 (Primary HTS)]; format: functional
# [7] = alpha-synuclein stem-loop luciferase translation blockers – H4 neuroglioma cells, luminescence, confirmation (AID 1988); format: functional, cell-based
# INS1 = assay: INS-1E survival protection against cytokine death – cell-based, luminescence, retest, dose response (AID 449756); format: functional; settings: Rattus norvegicus;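 further: cell death triggered by IL-1 beta plus TNF-alpha plus IFN-gamma mixture; protective hits raise ATP signal compared with cytokine alone wells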
# [8] = target: Luciferin 4-monooxygenase (Photinus pyralis, UniProt P08659); assay: inhibition of purified Photinus pyralis luciferase – biochemical, luminescence, dose response (AID 1891)
# [9] = Luminescence Cell-Based Dose Confirmation HTS to Identify Inhibitors of Platelet Dense Granule Release. [Related pubchem assays: 1663 (Primary HTS), 1678 (Summary of Project)]; format: functional
# [10] = Luminescence Cell-Based Dose Response HTS to Identify Activators of Luciferase Translation or Activity in H4 […] Cells. [Related pubchem assays: 1829 (Project Summary), 1814 (Primary HTS)]; format: functional
# H4 = assay: Luminescence Cell-Based Dose Response HTS to Identify Activators of 5'UTR Stem-Loop Driven Prion Protein mRNA Translation in H4 Neuroglioblastoma Cells. [Related pubchem assays: 1829 (Project Summary), 1814 (Primary HTS)]; format: functional; settings: Homo sapiens
# [11] = test system: Streptococcus sp. 'group A'; assay: Streptococcus pyogenes SK(-)GAS viability under kanamycin – luminescence, BacTiterGlo, confirmation, counter-screen for streptokinase expression inhibitor project, dose response (AID 1900); format: functional, organism-based
# Streptococcus = assay: GAS UMAA2166 growth inhibition – luminescence, BacTiterGlo, counter-screen for streptokinase expression inhibitor project, dose response (AID 1915); format: functional, organism-based;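 further: potency for reduction of bacterial viability or growth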
# [12] = viability of PTEN-deleted HCT116 cells – cell-based, HCT116 PTEN knockout, dose response (AID 1047); format: functional;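 further: HCT116 colon tumor cells with PTEN knocked out; cells exposed to compound for 60 hours before readout; potency for loss of cell viability measured by luminescence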
# [13] = Trypanosoma cruzi growth suppression in host cells – NIH3T3 host cells, beta-gal luminescence, confirmation (AID 2044); format: functional, cell-based;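 further: intracellular parasites grown in NIH/3T3 mouse fibroblasts as host cells; luminescent beta-galactosidase reporter signal from transgenic T. cruzi replicating inside host cells; inhibitors lower the luminescence signal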
# [14] = NIH3T3 cell viability loss – ATP luminescence, mouse fibroblasts, counter-screen, dose response (AID 2010); format: functional, cell-based;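 further: cells exposed to compound for about 90 hours before reading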
# [15] = Luminescence Cell-Based Dose Retest to Confirm Inhibitors of Cancer Stem Cells. [Related pubchem assays (depositor defined):AID2717, AID2721]; format: functional; settings: Homo sapiens
# Cytochrome P450 2D6 = Cytochrome P450 2D6 (Homo sapiens, UniProt P10635);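 further: CYP2D6 member of a cytochrome P450 panel assay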
# Sequence of Cytochrome P450 2D6 (P10635 whole entry): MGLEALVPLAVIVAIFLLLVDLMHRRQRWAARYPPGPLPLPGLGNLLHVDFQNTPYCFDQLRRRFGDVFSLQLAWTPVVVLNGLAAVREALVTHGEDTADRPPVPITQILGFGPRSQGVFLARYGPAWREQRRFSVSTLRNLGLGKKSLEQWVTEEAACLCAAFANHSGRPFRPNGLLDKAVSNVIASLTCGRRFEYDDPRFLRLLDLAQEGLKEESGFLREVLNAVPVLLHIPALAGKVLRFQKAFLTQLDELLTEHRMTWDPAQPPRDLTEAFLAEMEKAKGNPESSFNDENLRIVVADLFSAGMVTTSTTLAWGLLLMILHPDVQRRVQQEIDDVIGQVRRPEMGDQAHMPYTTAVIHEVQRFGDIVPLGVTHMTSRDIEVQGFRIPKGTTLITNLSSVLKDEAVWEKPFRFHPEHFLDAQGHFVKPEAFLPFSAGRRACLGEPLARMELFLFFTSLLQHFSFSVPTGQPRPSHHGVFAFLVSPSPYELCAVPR
# Sequence of Luciferin 4-monooxygenase (P08659 whole entry): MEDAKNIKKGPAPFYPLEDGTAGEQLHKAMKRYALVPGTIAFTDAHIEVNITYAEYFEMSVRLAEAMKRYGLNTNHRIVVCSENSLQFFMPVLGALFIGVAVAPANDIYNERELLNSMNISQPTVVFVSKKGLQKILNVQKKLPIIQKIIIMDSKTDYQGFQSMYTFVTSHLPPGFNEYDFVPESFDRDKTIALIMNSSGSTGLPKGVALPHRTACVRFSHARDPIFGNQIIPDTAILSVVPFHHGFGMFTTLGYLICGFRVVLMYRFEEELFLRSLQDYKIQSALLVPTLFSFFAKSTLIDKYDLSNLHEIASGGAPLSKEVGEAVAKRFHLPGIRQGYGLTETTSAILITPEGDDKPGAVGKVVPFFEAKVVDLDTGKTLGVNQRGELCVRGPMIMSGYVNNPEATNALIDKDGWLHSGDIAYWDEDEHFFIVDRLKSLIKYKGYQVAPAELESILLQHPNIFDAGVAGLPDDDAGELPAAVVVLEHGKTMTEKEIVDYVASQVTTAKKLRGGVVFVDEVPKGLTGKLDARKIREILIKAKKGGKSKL
structure (smiles),measurement,setting,value
COc1cccc(C2CCCN2Cc2nc(-c3cnccn3)no2)c1 (stereo unspecified),IC50,[1],> 47.1 µM (inactive)
same,EC50,[2],> 53 µM (inactive)
Cc1n[nH]c2c1C(c1cccs1)C(C#N)=C(N)O2 (stereo unspecified),AC50,[3],24.7 µM (active)
same,EC50,Protein RecA,4.74 µM (active)
COc1cc(CN2CCN(C(=O)CC(C)C)CC2)cc(OC)c1O,IC50,[4],78.6 µM (active)
Cc1cc(C)c(OCC(O)CN2CCN(C(=O)c3ccccc3)CC2)c(C)c1 (stereo unspecified),IC50,[4],139 µM (active)
CC1CCCCC1NC(=O)NC(=O)CCl (stereo unspecified),AC50,[3],22.5 µM (active)
same,EC50,Protein RecA,12.3 µM (active)
COC(=O)c1ccccc1NC(=O)C(C)n1nc(C)c2c(C)n(-c3ccccc3)nc2c1=O (stereo unspecified),EC50,[5],25.5 µM (active)
same,EC50,[6],20.1 µM (active)
same,EC50,[7],22.9 µM (active)
same,AC50,[3],208 µM (active)
same,EC50,Protein RecA,> 380 µM (inactive)
C=C[C@H](Cc1ccccc1)N(Cc1ccccc1)S(=O)(=O)N(Cc1ccccc1)[C@H](C=C)Cc1ccccc1,AC50,INS1,4.47 µM (active)
COc1cc(CNc2ccccc2SC)ccc1O,EC50,[8],> 112 µM (not active)
same,EC50,[9],> 112 µM (not active)
same,IC50,[1],> 47.1 µM (inactive)
same,EC50,[2],> 53 µM (inactive)
Cc1csc(NC(=O)c2nc3nccc(C)n3n2)n1,EC50,[10],36.1 µM (active)
same,EC50,H4,37.4 µM (active)
Cc1ccc(CCNC(=O)C2CCC(=O)N2C2CCCC2)cc1 (stereo unspecified),IC50,[1],> 47.1 µM (inactive)
same,EC50,[2],> 53 µM (inactive)
CCOC(=O)c1c(CCl)nc2ccccc2c1-c1ccccc1,AC50,[3],9.56 µM (active)
same,EC50,Protein RecA,12.6 µM (active)
COc1ccc(NC2CCCN(C(=O)CN3CCOC3=O)C2)cc1 (stereo unspecified),IC50,[4],109 µM (active)
COc1cc(C(C(=O)NC2CCCCC2)N(CCN2CCOCC2)C(=O)C2COc3ccccc3O2)cc(OC)c1OC (stereo unspecified),AC50,[3],> 380 µM (inactive)
same,EC50,Protein RecA,> 380 µM (inactive)
NNC(=S)NC1CCS(=O)(=O)C1 (stereo unspecified),IC50,[1],> 47.1 µM (inactive)
same,EC50,[2],> 53 µM (inactive)
Cc1ccccc1OCC(=O)OCC(=O)c1c[nH]c2ccccc12,IC50,[1],> 47.1 µM (inactive)
same,EC50,[2],> 53 µM (inactive)
Cc1ccc(-c2nn(-c3ccccc3)cc2/C=N/NC(=O)c2ccc3c(c2)OCO3)cc1,AC50,INS1,5.54 µM (active)
Cc1cccc(-n2c(C)cc(/C=N/n3cnnc3)c2C)c1,AC50,INS1,14.1 µM (active)
O=S1(=O)CCN(Cc2csc(-c3cccs3)n2)CC1,EC50,[8],> 112 µM (not active)
same,EC50,[9],17.9 µM (active)
same,AC50,INS1,145 µM (active)
O=C1/C(=C/c2cccc([N+](=O)[O-])c2)CCc2ccccc21,AC50,[3],8.57 µM (active)
same,EC50,Protein RecA,13.3 µM (active)
O=C(CNc1ccc(F)cc1)N/N=C/c1c(O)ccc2ccccc12,EC50,[11],0.846 µM (active)
same,EC50,Streptococcus,1.67 µM (active)
same,AC50,INS1,2.94 µM (active)
Cc1n[nH]c2c1C(C1CC=CCC1)C(C#N)=C(N)O2 (stereo unspecified),EC50,[12],34.7 µM (active)
O=C(Nc1ccccc1SCC1CSc2nc3ccccc3c(=O)n21)c1ccccc1 (stereo unspecified),IC50,[1],> 47.1 µM (inactive)
same,EC50,[2],> 53 µM (inactive)
CCCN(CCC)C(=O)c1cc([N+](=O)[O-])cc2c1-c1ccc([N+](=O)[O-])cc1C2=C(C#N)C#N,EC50,[13],1.62 µM (active)
same,EC50,[14],10.7 µM (active)
same,AC50,INS1,6.7 µM (active)
CCCc1c(-c2ccc(O)cc2)nn(-c2ccc(O)cc2)c1-c1ccc(O)cc1 [PROPYLPYRAZOLETRIOL],AC50,[15],3.78 µM (active)
same,AC50,[3],2.92 µM (active)
same,EC50,Protein RecA,4.88 µM (active)
same,AC50,Cytochrome P450 2D6,12.6 µM (inconclusive)
